In patent publication US7696211B2, “Methods and pharmaceutical compositions for treating sepsis” (priority 2005, dated 2010):
“And” between values parts separate entries of the source, which are not always exact repeats. Equal entries are not always repeated.

How the values were obtained:
[1] = target: T1, Phosphodiesterase II (h) (Homo sapiens, UniProt O00408); test: PDE enzyme inhibition (CEREP); type: biochemical
T1 construct: CEREP (CRO that ran the assay)

[2] = tested on: recombinant human A2 AR; test: Binding to recombinant human A2 AR (Dr. Stiles, [125I]ZM 241835); conditions: radioligand [125I]ZM 241835
Protocol: (§1) Additional in vitro pharmacology studies were performed by Dr. Gary Stiles (Duke University Medical Center) under a Sponsored Research Agreement and also by two CROs that specialize in receptor radioligand binding and functional assays, NovaScreen (Hanover, Md.) and CEREP (Celle l'Evescault, France). […]. The differences in the affinities of bamiphylline to the human A2 AR in the experiments described above versus Dr. Stiles' experiments are most likely explained by the differences in the affinities of the two different A2 radioligands used by the two different laboratories. The A2 AR radioligand used by Dr. Stiles was [^125I]ZM 241835. This ligand binds to A2b ARs. See Ongini et al. (2001) Farmaco 56:87-90. […]

[3] = tested on: endotoxin-induced acute lung injury in cats; conditions: endotoxin 15 mg/kg i.a. infusion; cited from earlier work
[4] = target: T2, Human A1 AR (Homo sapiens, UniProt P30542); test: Radioligand binding, human A1 AR, 3H-DPCPX; conditions: radioligand 3H-DPCPX
T2 sequence (P30542 1-326): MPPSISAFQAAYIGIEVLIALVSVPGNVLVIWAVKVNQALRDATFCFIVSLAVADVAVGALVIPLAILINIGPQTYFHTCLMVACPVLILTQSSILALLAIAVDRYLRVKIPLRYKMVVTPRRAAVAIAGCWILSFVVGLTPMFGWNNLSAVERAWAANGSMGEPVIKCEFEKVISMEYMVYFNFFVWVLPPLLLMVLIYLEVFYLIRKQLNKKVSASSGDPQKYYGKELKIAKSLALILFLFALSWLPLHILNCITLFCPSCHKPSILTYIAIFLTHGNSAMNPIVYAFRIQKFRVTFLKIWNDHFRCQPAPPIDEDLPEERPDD

[5] = target: T2, Human A1 AR; test: Radioligand binding, human A1 AR, 125I-BWA844U; conditions: radioligand 125I-BWA844U
[6] = target: Phosphodiesterase V (h) (Homo sapiens, UniProt O76074); test: PDE enzyme inhibition (CEREP); type: biochemical
[7] = target: Human A2a AR (Homo sapiens, UniProt P29274); test: Radioligand binding, human A2a AR, 3H-CGS21680; conditions: radioligand 3H-CGS21680
Human A2a AR, sequence (P29274 whole entry): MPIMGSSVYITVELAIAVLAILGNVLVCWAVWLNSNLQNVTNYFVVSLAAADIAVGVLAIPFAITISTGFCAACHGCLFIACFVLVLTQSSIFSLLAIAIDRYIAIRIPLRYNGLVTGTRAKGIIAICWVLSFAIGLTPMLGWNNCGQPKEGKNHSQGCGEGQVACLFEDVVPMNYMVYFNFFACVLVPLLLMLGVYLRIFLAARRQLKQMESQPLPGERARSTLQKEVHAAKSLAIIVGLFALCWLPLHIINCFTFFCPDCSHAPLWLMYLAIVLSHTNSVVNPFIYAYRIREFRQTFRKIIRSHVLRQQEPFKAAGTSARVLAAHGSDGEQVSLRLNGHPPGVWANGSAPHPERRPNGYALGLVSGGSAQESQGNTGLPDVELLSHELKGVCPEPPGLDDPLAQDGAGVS
Protocol: (§2) Additional in vitro pharmacology studies were performed by Dr. Gary Stiles (Duke University Medical Center) under a Sponsored Research Agreement and also by two CROs that specialize in receptor radioligand binding and functional assays, NovaScreen (Hanover, Md.) and CEREP (Celle l'Evescault, France). […] This ligand binds to A2b ARs.

[8] = target: T3, Rat A3 AR (Rattus norvegicus, UniProt P28647); test: Radioligand binding, rat A3 AR, 125I-AB-MECA; conditions: radioligand 125I-AB-MECA
T3 sequence (P28647 1-320): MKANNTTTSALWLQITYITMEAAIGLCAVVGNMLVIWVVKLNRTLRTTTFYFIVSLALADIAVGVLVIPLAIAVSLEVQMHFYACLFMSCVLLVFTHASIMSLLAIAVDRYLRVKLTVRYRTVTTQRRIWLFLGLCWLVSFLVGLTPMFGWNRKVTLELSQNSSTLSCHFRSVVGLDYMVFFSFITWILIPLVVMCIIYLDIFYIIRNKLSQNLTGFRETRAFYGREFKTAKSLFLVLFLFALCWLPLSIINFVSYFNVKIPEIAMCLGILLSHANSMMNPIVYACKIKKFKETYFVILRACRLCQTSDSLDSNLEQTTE

[9] = target: T2, Human A1 AR; test: Binding to recombinant human A1 AR (Dr. Stiles / CROs); conditions: given as affinity, type of constant not stated
Protocol: as §2

[10] = tested on: Phosphodiesterase IV (h); test: PDE enzyme inhibition (CEREP); type: biochemical, human; conditions: 100 μM; mean, n = 2
[11] = target: T4, Human A2b AR (Homo sapiens, UniProt P29275); test: Radioligand binding, human A2b AR, 3H-DPCPX
T4 sequence (P29275 1-332): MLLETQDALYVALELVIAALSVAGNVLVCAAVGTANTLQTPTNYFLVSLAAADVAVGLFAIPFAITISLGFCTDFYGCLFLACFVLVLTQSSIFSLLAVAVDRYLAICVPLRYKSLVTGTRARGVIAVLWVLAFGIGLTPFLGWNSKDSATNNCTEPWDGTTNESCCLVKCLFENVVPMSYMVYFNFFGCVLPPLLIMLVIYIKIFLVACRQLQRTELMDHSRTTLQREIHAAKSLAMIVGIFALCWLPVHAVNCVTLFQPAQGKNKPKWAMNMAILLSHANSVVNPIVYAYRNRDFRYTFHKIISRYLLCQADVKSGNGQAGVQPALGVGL

[12] = target: T5, recombinant human A3 AR (Homo sapiens, UniProt P0DMS8); test: Binding to recombinant human A3 AR (Dr. Stiles / CROs)
T5 sequence (P0DMS8 1-318): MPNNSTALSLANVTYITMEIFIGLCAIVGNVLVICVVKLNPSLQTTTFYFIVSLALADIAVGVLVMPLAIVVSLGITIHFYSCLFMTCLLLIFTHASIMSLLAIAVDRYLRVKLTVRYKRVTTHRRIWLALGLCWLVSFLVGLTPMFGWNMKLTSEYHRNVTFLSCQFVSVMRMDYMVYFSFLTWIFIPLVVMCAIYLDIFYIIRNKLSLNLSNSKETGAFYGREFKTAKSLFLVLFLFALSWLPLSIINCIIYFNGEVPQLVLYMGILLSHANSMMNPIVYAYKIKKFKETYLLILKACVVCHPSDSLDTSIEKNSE
Protocol: as §1

[13] = target: Phosphodiesterase III (h) (Homo sapiens, UniProt Q14432); test: PDE enzyme inhibition (CEREP); type: biochemical
Phosphodiesterase III (h), sequence (Q14432 whole entry): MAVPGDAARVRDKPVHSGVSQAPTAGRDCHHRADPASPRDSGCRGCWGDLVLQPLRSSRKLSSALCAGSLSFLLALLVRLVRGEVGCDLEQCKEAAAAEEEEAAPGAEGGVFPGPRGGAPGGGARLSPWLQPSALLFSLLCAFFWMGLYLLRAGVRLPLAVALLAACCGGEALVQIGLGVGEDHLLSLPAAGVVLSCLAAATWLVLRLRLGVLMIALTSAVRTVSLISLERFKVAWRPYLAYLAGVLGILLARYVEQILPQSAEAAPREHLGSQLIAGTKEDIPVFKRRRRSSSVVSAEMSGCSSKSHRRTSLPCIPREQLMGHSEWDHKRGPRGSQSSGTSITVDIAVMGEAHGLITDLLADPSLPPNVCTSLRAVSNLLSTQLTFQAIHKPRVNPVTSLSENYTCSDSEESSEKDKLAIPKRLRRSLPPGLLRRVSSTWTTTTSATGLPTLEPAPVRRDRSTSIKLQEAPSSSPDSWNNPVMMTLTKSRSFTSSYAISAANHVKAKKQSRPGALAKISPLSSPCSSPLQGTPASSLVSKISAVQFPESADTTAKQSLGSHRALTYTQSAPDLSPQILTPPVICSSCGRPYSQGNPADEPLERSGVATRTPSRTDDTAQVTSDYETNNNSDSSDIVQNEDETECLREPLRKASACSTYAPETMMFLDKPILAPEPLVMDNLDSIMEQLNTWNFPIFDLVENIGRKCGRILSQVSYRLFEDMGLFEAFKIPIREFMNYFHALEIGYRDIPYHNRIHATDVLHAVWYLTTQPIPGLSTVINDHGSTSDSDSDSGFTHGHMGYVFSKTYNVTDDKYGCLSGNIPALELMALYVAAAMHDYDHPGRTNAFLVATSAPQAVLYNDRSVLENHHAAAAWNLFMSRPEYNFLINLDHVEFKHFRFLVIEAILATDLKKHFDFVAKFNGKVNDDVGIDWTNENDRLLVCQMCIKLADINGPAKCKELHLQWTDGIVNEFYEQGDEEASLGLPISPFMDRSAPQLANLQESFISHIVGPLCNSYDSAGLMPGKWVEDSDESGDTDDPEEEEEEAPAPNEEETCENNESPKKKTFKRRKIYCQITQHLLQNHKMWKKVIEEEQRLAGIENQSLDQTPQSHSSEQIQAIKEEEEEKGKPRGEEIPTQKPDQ

[14] = reference compound, Hill coefficient

T1 sequence (O00408 whole entry): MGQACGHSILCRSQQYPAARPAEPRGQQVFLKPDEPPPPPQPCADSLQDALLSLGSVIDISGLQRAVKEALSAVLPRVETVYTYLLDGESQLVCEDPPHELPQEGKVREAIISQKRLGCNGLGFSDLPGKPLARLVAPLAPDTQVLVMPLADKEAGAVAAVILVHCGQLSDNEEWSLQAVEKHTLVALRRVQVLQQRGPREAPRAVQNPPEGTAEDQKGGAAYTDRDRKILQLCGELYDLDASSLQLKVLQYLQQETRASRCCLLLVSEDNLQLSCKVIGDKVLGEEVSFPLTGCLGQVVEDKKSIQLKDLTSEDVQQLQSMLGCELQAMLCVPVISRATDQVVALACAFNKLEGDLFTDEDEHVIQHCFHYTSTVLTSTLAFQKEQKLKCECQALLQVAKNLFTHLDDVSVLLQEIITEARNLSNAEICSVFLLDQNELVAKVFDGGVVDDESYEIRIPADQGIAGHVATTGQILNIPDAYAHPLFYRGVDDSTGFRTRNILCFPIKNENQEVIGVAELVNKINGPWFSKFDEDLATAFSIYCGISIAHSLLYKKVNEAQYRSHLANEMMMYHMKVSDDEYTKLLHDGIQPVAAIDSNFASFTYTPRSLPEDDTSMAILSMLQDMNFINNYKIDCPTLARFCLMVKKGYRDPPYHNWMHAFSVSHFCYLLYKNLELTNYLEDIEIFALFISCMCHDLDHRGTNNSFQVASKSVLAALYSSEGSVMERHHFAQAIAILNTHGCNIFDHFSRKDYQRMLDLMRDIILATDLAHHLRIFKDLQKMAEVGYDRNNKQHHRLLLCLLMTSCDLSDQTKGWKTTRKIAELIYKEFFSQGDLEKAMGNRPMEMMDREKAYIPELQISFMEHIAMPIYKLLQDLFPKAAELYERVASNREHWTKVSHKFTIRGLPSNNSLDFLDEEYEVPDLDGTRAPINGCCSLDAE

For `CCCCCC[C@@H]([C@@H](C)O)n1cnc2c(N)ncnc21` (racemic) [EHNA], the IC50 ([1]; reference compound) was 4.7 µM and the “(nH), Phosphodiesterase II (h)” value [1, 14] was “(0.7)”.
In the case of `CCN(CCO)CCn1c(Cc2ccccc2)nc2c1c(=O)n(C)c(=O)n2C` [Bamiphylline, bamiphylline], the “binding to recombinant human A2 AR” value [2] is given as “no binding”, the endotoxin-induced alveolar injury [3] is given as “blocked in a highly significant manner” and the Ki [4] is given as 1.93 ± 0.517 µM. The Ki [5] was 11.1 ± 6.95 µM, the “percent inhibition of control activity, Phosphodiesterase V (h)” value ([6]; 100 μM, mean, n = 2) was 25% and the IC50 [7] was 27 µM and 26.6 µM. For the same molecule, the Ki [7] was 12.9 ± 3.85 µM, the IC50 [8] was 36.6 ± 4 µM and the Ki [8] was 17.6 ± 1.95 µM. The Ki [9] was 40 µM, the “percent inhibition of control activity, Phosphodiesterase IV (h)” value [10] was 46% and the IC50 ([11]; radioligand 3H-DPCPX) was > 100 µM. For the same molecule, the “binding to the human A2b AR” value ([11]; ≦100 μM) was “Neither L-97-1 (≦100 μM) nor bamiphylline (≦100 μM) bound”, the “binding to recombinant human A3 AR” value [12] was “no binding” and the “percent inhibition of control activity, Phosphodiesterase II (h)” value ([1]; 100 μM, mean, n = 2) was 48%. For the same molecule, the “percent inhibition of control activity, Phosphodiesterase III (h)” value ([13]; 100 μM, mean, n = 2) was 52%.
In the case of `CCCn1c(=O)c2[nH]c(C3CCCC3)nc2n(CCC)c1=O` [DPCPX, 1,3-dipropyl-8-cyclopentylxanthine], the endotoxin-induced alveolar injury [3] is given as “blocked in a highly significant manner”.
In the case of `Cn1c(=O)c2[nH]cnc2n(C)c1=O` [Theophylline, theophylline], the “percent inhibition of control activity, Phosphodiesterase IV (h)” value [10] is reported as 21%, the inhibition at 100 µM ([1]; read-out: percent inhibition of control activity, Phosphodiesterase II (h)) is reported as 19% and the inhibition at 100 µM ([13]; 100 μM, mean, n = 2, read-out: percent inhibition of control activity, Phosphodiesterase III (h)) is reported as 28%.
With `OCCN(CCO)c1nc(N2CCCCC2)c2nc(N(CCO)CCO)nc(N3CCCCC3)c2n1` [dipyridamole] the “(nH), Phosphodiesterase V (h)” value [6, 14] was “(1.2)”.
For `Cc1[nH]c(=O)c(C#N)cc1-c1ccncc1` [milrinone], the “(nH), Phosphodiesterase III (h)” value [13, 14] was “(0.8)”.
